Assay results published in US20220274980A1, “PHARMACOLOGICAL INHIBITORS OF THE ENL YEATS DOMAIN” (priority 2019, published 2022).

Legend:
ENL(YEATS)-HiBiT = biological target: T1, ENL(YEATS)-HiBiT (Homo sapiens, UniProt Q03111); assay: cell-based
T1 sequence (Q03111 1-138 limits assumed): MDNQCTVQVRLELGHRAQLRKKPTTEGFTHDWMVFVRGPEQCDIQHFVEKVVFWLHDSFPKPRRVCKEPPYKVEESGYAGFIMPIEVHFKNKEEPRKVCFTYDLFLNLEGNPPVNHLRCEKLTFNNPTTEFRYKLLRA
Experimental: Cellular thermal shift assay (CETSA). […] Cells were transferred to 384-well (20,000 cells per well in 20 μL) or 1,536-well (3,000 cells per well in 4 μL) plates and drug was transferred using a 100 nL pin tool for 384-well plates or acoustic transfer (Labcyte, Echo Liquid Handler) for 1,536-well plates. Luminescent detection of HiBiT was performed by combining an equal volume of Nano-Glo HiBiT Lytic Reagent (Promega, HiBiT Lytic Detection System, Cat. No. N3040) in each well. […] Briefly, cells were treated with drug, washed with PBS, heated to various temperatures in a thermocycler, cooled to room temperature, lysed by three rounds of freeze-thaw, and then clarified lystaes were subjected to immunoblot analysis.

ENL protein = biological target: T2, ENL protein (Homo sapiens, UniProt Q03111); assay: ENL immunoblot CETSA on endogenous ENL in OCI/AML-2 cells; assay type: cell-based; settings: 10 μM
T2 construct: performed on endogenous ENL protein by treating wild-type OCI-AML-2 cells with drug; endogenous in cells; host or cells: OCI/AML-2
T2 sequence (Q03111 1-559): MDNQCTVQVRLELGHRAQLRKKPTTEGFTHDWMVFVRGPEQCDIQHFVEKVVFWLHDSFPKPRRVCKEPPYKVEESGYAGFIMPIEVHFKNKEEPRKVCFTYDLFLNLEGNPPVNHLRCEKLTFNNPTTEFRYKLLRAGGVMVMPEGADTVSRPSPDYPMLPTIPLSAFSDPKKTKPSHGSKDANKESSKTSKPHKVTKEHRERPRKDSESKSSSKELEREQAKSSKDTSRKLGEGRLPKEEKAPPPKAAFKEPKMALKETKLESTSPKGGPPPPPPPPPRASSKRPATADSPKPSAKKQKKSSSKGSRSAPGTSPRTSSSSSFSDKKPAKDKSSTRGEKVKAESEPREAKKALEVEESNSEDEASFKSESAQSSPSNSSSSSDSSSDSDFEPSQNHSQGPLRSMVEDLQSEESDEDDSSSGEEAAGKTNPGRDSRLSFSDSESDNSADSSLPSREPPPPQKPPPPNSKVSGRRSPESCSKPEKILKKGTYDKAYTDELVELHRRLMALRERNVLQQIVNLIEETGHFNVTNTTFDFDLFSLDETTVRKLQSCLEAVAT
Experimental: Cellular thermal shift assay (CETSA). […] Briefly, cells were treated with drug, washed with PBS, heated to various temperatures in a thermocycler, cooled to room temperature, lysed by three rounds of freeze-thaw, and then clarified lystaes were subjected to immunoblot analysis.

[1] = biological target: T3, ENL YEATS domain (association with H3K27cr) (Homo sapiens, UniProt Q03111); assay: biochemical; settings: ENL (YEATS)-H3K27cr HTRF (IC50, μM)
T3 sequence (Q03111 1-148): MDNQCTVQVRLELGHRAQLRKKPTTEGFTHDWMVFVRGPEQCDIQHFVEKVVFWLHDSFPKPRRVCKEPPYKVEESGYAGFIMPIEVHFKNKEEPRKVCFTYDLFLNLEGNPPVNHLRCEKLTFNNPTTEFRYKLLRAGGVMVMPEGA

MV4; 11 cells = assay: MV4;11 proliferation assay (total viable cell count); assay type: cell-based; settings: listed as Compound of Formula 69
Experimental: Proliferation assay. MV4; 11 cells were seeded at 20,000 cells/well in 96-well plates and treated with vehicle or drug, counted and reseeded at 20,000 cells/well every 3-4 days with freshly added vehicle or drug.

[2] = Half-life in mouse liver microsomes; assay type: in vitro ADME
[3] = Half-life in human liver microsomes; assay type: in vitro ADME
[4] = read-out: t1/2 (min) mouse liver microsomes
[5] = without NADPH, read-out: t1/2 mouse (min liver microsomes (without NADPH))
[6] = read-out: t1/2 (min) human liver microsomes

IC50 (ENL(YEATS)-HiBiT) [nM] | IC50 ([1]; Table 1) [µM] | IC50 ([1]; Table 2) [µM] | half-life [2, 4] [min] | half-life [2, 5] [min] | half-life [3, 6] [min] | half-life ([3]; without NADPH, read-out: t1/2 (min) human liver microsomes (without NADPH)) [min] | Structure (SMILES) | stabilization of ENL protein, immunoblot analysis of CETSA (ENL protein) | inhibition of MV4:11 proliferation, total viable cell count (MV4; 11 cells)
297 | 0.062 | 0.062 | 2.29 | 405 |  |  | CC1(C)CCN(CCNS(=O)(=O)Nc2cccc(-c3cn4cc(C(=O)NC5CCC5)ccc4n3)c2)CC1 [Compound 101] |  | 
536 | 0.478 | 0.478 | 34.1 | 138 |  |  | O=C(CCN1CCCCC1)Nc1cccc(-c2cn3cc(C(=O)NC4CCC4)ccc3n2)c1 [Compound 102] |  | 
2200 | 0.696 | 0.696 | 13.1 | 16.1 |  |  | O=C(CCCCN1CCCCC1)Nc1cccc(-c2cn3cc(C(=O)NC4CCC4)ccc3n2)c1 [Compound 103] |  | 
1030 | 0.134 | 0.134 | 14.5 |  |  |  | O=C(NC1CCC1)c1ccc2nc(-c3cccc(NS(=O)(=O)CCCN4CCCCC4)c3)cn2c1 [Compound 104] |  | 
3240 | 0.84 | 0.84 | 9.7 |  |  |  | O=C(NC1CCC1)c1ccc2nc(-c3cccc(S(=O)(=O)NCCCN4CCCCC4)c3)cn2c1 [Compound 105] |  | 
1240 | 0.027 | 0.027 | 7.83 |  |  |  | O=C(NC1CCC1)c1ccc2nc(-c3cccc(NS(=O)(=O)CCN4CCCCC4)c3)cn2c1 [Compound 106] |  | 
2020 | 0.635 | 0.635 | 6.15 |  |  |  | O=C(NC1CCC1)c1ccc2nc(-c3cccc(S(=O)(=O)NCCN4CCCCC4)c3)cn2c1 [Compound 107] |  | 
630 | 0.124 | 0.124 | 28 |  | 23.8 | 537 | O=C(NCCN1CCCCC1)c1cccc(-c2cn3cc(C(=O)NC4CCC4)ccc3n2)c1 [Compound 108] |  | 
8130 | 0.265 | 0.265 | 3.46 |  |  |  | O=C(CCN1CCCCC1=O)Nc1cccc(-c2cn3cc(C(=O)NC4CCC4)ccc3n2)c1 [Compound 109] |  | 
5010 | 0.306 | 0.306 | 19.9 |  |  |  | O=C(CCN1CCOCC1)Nc1cccc(-c2cn3cc(C(=O)NC4CCC4)ccc3n2)c1 [Compound 110] |  | 
1070 | 0.172 | 0.172 | 6.16 |  |  |  | O=C(CN1CCCCC1)Nc1cccc(-c2cn3cc(C(=O)NC4CCC4)ccc3n2)c1 [Compound 112] |  | 
2630 | 0.153 | 0.153 | 85.9 |  | 104 |  | O=C(NCCN1CCCCC1)Nc1cccc(-c2cn3cc(C(=O)NC4CCC4)ccc3n2)c1 [Compound 113] |  | 
4500 | 0.261 | 0.261 | 323 |  | 2960 |  | O=C(CCN1CCNCC1)Nc1cccc(-c2cn3cc(C(=O)NC4CCC4)ccc3n2)c1 [Compound 114] |  | 

Structure (SMILES) | IC50 (ENL(YEATS)-HiBiT) [nM] | IC50 ([1]; Table 1) [µM] | IC50 ([1]; Table 2) [µM] | half-life [2, 4] [min] | half-life [2, 5] [min] | half-life [3, 6] [min] | half-life ([3]; without NADPH, read-out: t1/2 (min) human liver microsomes (without NADPH)) [min] | stabilization of ENL protein, immunoblot analysis of CETSA (ENL protein) | inhibition of MV4:11 proliferation, total viable cell count (MV4; 11 cells)
O=C(NC1CCC1)c1ccc2nc(-c3cccc(NS(=O)(=O)NCCc4c[nH]cn4)c3)cn2c1 [Compound 69, 2-(3-((N-(2-(1H-imidazol-4-yl)ethyl)sulfamoyl)amino)phenyl)-N-cyclobutylimidazo[1,2-a]pyridine-6-carboxamide] | 8400 | 0.1 | 0.1 |  |  |  |  | stabilization of ENL protein | Inhibition of MV4:11 proliferations
